Data published in patent US8415469B2, “Compounds and methods for kinase modulation, and indications therefor” (Plexxikon Inc., priority 2005, dated 2013).

Legend:
Format in all cases: biochemical
IKK beta = molecular target: T1, IKK beta (Homo sapiens, UniProt O14920); assay: AlphaScreen kinase assay, IKK beta; conditions: read-out: IC50, activity toward kinase IKK beta
T1 sequence (O14920 1-756): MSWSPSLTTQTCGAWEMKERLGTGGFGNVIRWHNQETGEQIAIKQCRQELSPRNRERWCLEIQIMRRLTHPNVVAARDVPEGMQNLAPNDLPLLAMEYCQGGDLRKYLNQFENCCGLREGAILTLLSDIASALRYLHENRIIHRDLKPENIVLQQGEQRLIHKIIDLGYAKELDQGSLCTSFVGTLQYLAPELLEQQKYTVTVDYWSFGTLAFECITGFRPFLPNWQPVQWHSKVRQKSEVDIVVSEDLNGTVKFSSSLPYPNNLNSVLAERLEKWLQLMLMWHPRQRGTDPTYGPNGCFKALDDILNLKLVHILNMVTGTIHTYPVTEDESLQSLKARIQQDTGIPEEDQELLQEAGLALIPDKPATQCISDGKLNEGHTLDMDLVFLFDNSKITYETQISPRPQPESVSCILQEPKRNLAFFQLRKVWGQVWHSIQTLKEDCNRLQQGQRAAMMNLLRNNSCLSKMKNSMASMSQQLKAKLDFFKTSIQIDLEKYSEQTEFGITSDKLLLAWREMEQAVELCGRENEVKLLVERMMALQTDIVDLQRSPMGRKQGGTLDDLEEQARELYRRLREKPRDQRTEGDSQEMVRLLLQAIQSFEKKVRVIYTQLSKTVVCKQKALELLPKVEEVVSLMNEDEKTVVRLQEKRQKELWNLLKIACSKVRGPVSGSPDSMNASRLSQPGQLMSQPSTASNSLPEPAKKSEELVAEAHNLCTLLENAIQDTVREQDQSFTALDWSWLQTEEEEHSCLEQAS

Kdr = molecular target: T2, Kdr (Homo sapiens, UniProt P35968); assay: Z'-Lyte FRET kinase assay (Invitrogen), Kdr; conditions: read-out: IC50, activity toward kinase Kdr
T2 construct: purchased Invitrogen (assay run by Invitrogen)

IGF1R = IGF1R (Homo sapiens, UniProt P08069); assay: AlphaScreen kinase assay, IGF1R; conditions: read-out: IC50, activity toward kinase IGF1R
Ret = molecular target: T3, Ret (Homo sapiens, UniProt P07949); assay: AlphaScreen kinase assay, Ret; conditions: read-out: IC50, activity toward kinase Ret
T3 construct: P1378.pET-SF BI-PTP RET H661-R1012 HIS; made in house
T3 sequence (P07949 with tags, fused parts or gaps): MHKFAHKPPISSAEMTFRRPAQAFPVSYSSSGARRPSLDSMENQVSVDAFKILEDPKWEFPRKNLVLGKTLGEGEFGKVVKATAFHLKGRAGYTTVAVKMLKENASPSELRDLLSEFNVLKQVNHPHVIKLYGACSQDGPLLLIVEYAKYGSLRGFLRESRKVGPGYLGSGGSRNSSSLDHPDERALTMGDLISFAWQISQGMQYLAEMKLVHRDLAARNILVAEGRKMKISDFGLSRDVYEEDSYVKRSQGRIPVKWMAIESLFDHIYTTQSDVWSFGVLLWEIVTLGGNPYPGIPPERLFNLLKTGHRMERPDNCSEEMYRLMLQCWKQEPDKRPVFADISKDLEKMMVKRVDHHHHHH

Jnk3 = molecular target: T4, Jnk3 (Homo sapiens, UniProt P53779); assay: AlphaScreen kinase assay, Jnk3; conditions: read-out: IC50, activity toward kinase Jnk3
T4 construct: purchased Upstate Biotechnology

Kit = molecular target: T5, Kit (Homo sapiens, UniProt P10721); assay: AlphaScreen kinase assay, Kit; conditions: read-out: IC50, activity toward kinase Kit
T5 construct: P1332.N6 BI PTP KIT M552-K948-X COD; His6 (N); made in house; host or cells: E. coli (PTP1B co-expressed)

Stk6 = molecular target: T6, Stk6 (Homo sapiens, UniProt O14965); assay: Z'-Lyte FRET kinase assay (Invitrogen), Stk6; conditions: read-out: IC50, activity toward kinase Stk6
T6 construct: purchased Invitrogen (Carlsbad, Calif.), screening service
T6 sequence (O14965 1-403): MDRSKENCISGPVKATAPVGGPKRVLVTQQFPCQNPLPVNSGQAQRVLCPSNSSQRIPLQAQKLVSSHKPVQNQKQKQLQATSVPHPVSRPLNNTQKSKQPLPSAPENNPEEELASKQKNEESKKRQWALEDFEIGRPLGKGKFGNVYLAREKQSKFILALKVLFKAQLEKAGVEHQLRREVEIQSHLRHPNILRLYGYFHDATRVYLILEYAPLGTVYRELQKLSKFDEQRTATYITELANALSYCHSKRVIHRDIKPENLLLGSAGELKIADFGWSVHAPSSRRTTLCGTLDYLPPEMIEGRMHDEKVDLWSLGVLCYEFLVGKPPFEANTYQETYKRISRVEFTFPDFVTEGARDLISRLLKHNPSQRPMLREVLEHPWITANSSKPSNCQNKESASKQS

Fak = molecular target: T7, Fak (Homo sapiens, UniProt Q05397); assay: AlphaScreen kinase assay, Fak; conditions: read-out: IC50, activity toward kinase Fak
T7 construct: P1358.pFastBacHtb FAK S411-Q686-X; His6 with pFastBacHTb leader (TEV site) (N); made in house; host or cells: Sf9 (baculovirus)
From the text: (§2) AlphaScreen assay was used to screen additional kinases. The assay is similarly dependent on the phosphorylation of a peptide substrate. In this assay, an antibody that recognizes phosphorylated substrate is bound to an acceptor bead. The peptide substrate is attached to biotin, which binds to a donor head that contains streptavidin. Thus phosphorylated substrate is bound by antibody and streptavidin, bringing the donor and acceptor heads into close proximity when kinase is not inhibited. The donor produces singlet oxygen which results in emission from the acceptor when they are in close proximity. Conversely, when kinase is inhibited, the donor and acceptor beads are not associated and the emission from the acceptor is reduced.
(§3) AlphaScreen assays were done using compounds dissolved in DMSO to a concentration of 20 mM. The compounds were diluted accordingly to the desired final concentrations in each sample well, using 1:3 serial dilution for a total of 8 concentration points. Plates were prepared such that each kinase reaction is 20 μl in 1× kinase buffer, 5% DMSO and 10 μM ATP. After incubation of the kinase reaction for 1 hour at room temperature, 5 μl of donor beads in stop buffer (50 mM EDTA in 1× kinase buffer) was added, the sample was mixed and incubated for 20 minutes at room temperature before adding 5 μl of acceptor beads in stop buffer. The samples were incubated for 60 minutes at room temperature and the signal per well was read on AlphaQuest reader.

Src = molecular target: T8, Src (Homo sapiens, UniProt P12931); assay: AlphaScreen kinase assay, Src; conditions: read-out: IC50, activity toward kinase Src
T8 construct: P1144. pET-N6 BI-PTP SRC V86-L536-X; made in house
T8 sequence (P12931 with tags, fused parts or gaps): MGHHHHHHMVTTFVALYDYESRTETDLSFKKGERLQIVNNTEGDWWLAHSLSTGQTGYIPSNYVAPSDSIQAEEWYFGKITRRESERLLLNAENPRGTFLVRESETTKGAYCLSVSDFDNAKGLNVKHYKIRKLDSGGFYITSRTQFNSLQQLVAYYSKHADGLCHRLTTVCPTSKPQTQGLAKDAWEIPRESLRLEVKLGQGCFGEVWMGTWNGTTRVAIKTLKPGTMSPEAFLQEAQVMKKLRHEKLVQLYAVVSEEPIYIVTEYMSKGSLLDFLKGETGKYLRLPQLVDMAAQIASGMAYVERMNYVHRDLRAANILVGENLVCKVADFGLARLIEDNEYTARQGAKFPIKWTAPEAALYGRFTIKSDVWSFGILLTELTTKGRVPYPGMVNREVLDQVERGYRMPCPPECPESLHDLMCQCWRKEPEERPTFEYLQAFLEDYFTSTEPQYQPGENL
From the text: as §2, §3

Fms = molecular target: T9, Fms (Homo sapiens, UniProt P07333); assay: AlphaScreen kinase assay, Fms; conditions: read-out: IC50, activity toward kinase Fms
T9 construct: purchased Upstate Biotechnology
T9 sequence (P07333 20-972): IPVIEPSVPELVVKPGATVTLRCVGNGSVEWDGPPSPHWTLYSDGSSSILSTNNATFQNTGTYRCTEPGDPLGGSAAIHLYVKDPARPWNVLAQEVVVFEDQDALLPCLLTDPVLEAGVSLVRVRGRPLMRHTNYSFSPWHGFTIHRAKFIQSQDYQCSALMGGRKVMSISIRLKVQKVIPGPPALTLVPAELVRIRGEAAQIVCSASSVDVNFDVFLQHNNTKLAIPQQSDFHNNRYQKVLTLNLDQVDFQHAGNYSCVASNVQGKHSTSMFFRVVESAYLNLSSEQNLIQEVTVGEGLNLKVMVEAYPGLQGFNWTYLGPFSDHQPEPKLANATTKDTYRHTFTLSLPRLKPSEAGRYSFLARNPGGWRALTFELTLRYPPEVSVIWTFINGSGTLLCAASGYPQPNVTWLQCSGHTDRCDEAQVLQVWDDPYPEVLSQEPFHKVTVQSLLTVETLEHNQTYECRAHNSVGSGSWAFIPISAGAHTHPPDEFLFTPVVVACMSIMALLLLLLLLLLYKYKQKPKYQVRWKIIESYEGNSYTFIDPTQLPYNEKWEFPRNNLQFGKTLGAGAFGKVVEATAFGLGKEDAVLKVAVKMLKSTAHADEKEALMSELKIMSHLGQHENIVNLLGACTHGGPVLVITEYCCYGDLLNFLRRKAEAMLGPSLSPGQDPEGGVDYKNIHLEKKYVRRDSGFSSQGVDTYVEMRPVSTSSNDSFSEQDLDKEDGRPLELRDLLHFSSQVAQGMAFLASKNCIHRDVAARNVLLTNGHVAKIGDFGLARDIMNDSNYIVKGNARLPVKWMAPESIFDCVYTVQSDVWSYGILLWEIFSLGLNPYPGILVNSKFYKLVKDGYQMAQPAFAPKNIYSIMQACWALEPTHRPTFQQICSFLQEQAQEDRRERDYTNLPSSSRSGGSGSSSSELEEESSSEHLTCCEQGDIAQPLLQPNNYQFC

Btk = molecular target: T10, Btk (Homo sapiens, UniProt Q06187); assay: Z'-Lyte FRET kinase assay (Invitrogen), Btk; conditions: read-out: IC50, activity toward kinase Btk
T10 construct: purchased Invitrogen (assay run by Invitrogen)
From the text: For example, direct radiometric, indirect FRET or AlphaScreen assays may be used to assess the level of phosphorylation of a substrate in the presence of test compounds in order to determine the inhibitory affect of the compound on the kinase. […] For these assays, compounds of the invention were screened by Invitrogen using Z′-Lyte™ kinase assay.
Briefly, the Invitrogen kinase assay involves use of a specific peptide substrate optimized for each kinase, containing a fluorophore at each end that make up the FRET pair. The peptide sensitivity to proteolytic cleavage depends on phosphorylation of the peptide. Non-phosphorylated peptide is cleaved by a protease while peptide phosphorylated by the kinase is not cleaved. Cleavage of the peptide disrupts the FRET between the donor (coumarin) and acceptor (fluorescein) fluorophores, resulting in an increase in the ratio of donor emission to acceptor emission. The emission ratio of coumarin to fluorescein is used to assess the reaction progress. […] Thus, the assay involves a kinase reaction in the presence of varying concentrations of a given compound, a development reaction with site specific protease, and detection of the fluorescent emission ratio of coumarin and fluorscein. […] Reaction conditions for each kinase are determined to provide optimal reaction times, incubation temperature, kinase and ATP concentrations. Test samples are made up in 1× kinase buffer (50 mM HEPES pH 7.5, 50 mM MgCl2, 5 mM EGTA, 0.05% BRIJ-35) and compound at desired concentration prepared in DMSO such that the final DMSO is 1%. […] All kinase except for MAP2K1 were at 10 μM ATP in the kinase reaction, while MAP2K1 was at 100 μM. Samples are mixed and the kinase reaction is incubated 1 hour at room temperature, after which 5 μl of development solution is added and mixed. After incubation for another 1 hour at room temperature, 5 μl of stop reagent is added to each sample and mixed. The fluorescence signals are measured to determine the emission ratio.

Jnk1 = molecular target: T11, Jnk1 (Homo sapiens, UniProt P45983); assay: AlphaScreen kinase assay, Jnk1; conditions: read-out: IC50, activity toward kinase Jnk1
T11 construct: purchased Upstate Biotechnology
T11 sequence (P45983 whole entry): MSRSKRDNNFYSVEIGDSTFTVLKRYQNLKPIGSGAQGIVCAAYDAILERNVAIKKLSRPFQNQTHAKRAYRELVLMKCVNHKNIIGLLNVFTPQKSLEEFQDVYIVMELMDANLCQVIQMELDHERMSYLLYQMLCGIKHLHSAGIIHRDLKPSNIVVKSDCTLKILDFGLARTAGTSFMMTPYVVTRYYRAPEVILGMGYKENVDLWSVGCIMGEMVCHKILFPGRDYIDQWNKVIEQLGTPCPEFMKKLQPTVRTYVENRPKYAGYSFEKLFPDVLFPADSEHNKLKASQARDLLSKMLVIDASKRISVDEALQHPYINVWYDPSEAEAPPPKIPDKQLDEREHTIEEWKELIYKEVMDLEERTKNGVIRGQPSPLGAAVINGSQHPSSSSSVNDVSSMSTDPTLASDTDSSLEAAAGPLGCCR

B-Raf = molecular target: T12, B-Raf (Homo sapiens, UniProt P15056); assay: AlphaScreen kinase assay, B-Raf; conditions: read-out: IC50, activity toward kinase B-Raf
T12 construct: purchased Upstate Biotechnology

FGFR1 = molecular target: T13, FGFR1 (Homo sapiens, UniProt P11362, C488A/C584S); assay: AlphaScreen kinase assay, FGFR1; conditions: read-out: IC50, activity toward kinase FGFR
T13 construct: P1351.pET N6 BI-PTP FGFR A458-E765-X C488A, C584S; made in house; host or cells: E. coli (PTP1B co-expressed)
T13 sequence (P11362 458-765 C488A/C584S): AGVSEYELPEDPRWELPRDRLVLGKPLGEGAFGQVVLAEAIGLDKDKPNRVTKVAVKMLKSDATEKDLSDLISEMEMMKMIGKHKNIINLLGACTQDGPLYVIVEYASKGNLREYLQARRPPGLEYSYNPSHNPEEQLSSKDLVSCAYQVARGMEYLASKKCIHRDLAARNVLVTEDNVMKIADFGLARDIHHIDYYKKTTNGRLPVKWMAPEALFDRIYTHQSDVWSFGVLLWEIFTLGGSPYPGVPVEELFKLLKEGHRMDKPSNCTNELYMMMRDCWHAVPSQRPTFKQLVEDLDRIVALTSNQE

c-Raf-1 = molecular target: T14, c-Raf-1 (Homo sapiens, UniProt P04049); assay: AlphaScreen kinase assay, c-Raf-1; conditions: read-out: IC50, activity toward kinase c-Raf-1
T14 construct: purchased Upstate Biotechnology
T14 sequence (P04049 whole entry): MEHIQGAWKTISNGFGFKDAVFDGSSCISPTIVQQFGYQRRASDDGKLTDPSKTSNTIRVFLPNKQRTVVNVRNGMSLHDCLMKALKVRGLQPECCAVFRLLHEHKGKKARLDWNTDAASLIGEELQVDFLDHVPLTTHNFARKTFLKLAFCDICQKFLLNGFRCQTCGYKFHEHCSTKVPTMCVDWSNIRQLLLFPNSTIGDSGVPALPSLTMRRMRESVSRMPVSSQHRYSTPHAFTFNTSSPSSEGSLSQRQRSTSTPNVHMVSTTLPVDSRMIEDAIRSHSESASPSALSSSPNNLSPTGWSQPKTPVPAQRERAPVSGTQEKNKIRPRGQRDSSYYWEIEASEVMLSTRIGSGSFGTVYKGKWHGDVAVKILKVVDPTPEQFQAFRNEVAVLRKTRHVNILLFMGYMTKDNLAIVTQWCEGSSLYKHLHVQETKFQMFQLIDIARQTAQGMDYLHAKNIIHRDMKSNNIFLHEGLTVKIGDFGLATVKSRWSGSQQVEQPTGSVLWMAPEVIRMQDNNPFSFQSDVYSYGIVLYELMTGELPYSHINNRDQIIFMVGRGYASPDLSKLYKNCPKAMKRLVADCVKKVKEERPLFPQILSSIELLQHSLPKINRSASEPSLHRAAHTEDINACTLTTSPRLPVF

B-Raf V600E = molecular target: T15, B-Raf V600E (Homo sapiens, UniProt P15056, V600E); assay: AlphaScreen kinase assay, B-Raf V600E; conditions: read-out: IC50, activity toward kinase B-Raf V600E
T15 construct: P4254. pFastBacBD-CDC37 BRAF D437-K722-X, V600E; His6 with pFastBac HT leader (TEV site) (N); made in house; host or cells: Sf9 (baculovirus; chaperone CDC37 co-expressed)

Met = molecular target: T16, Met (Homo sapiens, UniProt P08581); assay: AlphaScreen kinase assay, Met; conditions: read-out: IC50, activity toward kinase Met
T16 construct: P1818.pETN6 BI-PTP MET G1056-G1364-X WT; His6 (N); made in house; host or cells: E. coli (PTP1B co-expressed)
In short: (§1)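 Bead-proximity format: phosphopeptide links anti-phospho antibody acceptor beads to streptavidin donor beads via biotin tag. Compounds were serially diluted 1:3 (8 points) from 20 mM stocks in DMSO.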

Jnk2 = molecular target: T17, Jnk2 (Homo sapiens, UniProt P45984); assay: AlphaScreen kinase assay, Jnk2; conditions: read-out: IC50, activity toward kinase Jnk2
T17 construct: purchased Roche Protein Expression Group (Indianapolis, IN)
T17 sequence (P45984 whole entry): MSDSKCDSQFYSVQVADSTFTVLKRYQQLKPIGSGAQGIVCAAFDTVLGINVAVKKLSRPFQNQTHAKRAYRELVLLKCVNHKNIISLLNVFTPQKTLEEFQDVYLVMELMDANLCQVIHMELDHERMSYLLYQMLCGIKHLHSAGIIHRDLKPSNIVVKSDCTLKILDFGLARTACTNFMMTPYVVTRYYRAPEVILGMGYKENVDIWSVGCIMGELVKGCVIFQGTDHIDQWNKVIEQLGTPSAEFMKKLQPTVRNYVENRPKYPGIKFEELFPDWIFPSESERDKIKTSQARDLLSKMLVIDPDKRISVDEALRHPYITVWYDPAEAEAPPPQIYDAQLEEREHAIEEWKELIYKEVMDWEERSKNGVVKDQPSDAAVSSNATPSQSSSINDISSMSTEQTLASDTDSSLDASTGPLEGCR
In short: as §1

MAP4K4 = MAP4K4 (Homo sapiens, UniProt O95819); assay: AlphaScreen kinase assay, MAP4K4; conditions: read-out: IC50, activity toward kinase MAP4K4
Sequence of MAP4K4 (O95819 whole entry): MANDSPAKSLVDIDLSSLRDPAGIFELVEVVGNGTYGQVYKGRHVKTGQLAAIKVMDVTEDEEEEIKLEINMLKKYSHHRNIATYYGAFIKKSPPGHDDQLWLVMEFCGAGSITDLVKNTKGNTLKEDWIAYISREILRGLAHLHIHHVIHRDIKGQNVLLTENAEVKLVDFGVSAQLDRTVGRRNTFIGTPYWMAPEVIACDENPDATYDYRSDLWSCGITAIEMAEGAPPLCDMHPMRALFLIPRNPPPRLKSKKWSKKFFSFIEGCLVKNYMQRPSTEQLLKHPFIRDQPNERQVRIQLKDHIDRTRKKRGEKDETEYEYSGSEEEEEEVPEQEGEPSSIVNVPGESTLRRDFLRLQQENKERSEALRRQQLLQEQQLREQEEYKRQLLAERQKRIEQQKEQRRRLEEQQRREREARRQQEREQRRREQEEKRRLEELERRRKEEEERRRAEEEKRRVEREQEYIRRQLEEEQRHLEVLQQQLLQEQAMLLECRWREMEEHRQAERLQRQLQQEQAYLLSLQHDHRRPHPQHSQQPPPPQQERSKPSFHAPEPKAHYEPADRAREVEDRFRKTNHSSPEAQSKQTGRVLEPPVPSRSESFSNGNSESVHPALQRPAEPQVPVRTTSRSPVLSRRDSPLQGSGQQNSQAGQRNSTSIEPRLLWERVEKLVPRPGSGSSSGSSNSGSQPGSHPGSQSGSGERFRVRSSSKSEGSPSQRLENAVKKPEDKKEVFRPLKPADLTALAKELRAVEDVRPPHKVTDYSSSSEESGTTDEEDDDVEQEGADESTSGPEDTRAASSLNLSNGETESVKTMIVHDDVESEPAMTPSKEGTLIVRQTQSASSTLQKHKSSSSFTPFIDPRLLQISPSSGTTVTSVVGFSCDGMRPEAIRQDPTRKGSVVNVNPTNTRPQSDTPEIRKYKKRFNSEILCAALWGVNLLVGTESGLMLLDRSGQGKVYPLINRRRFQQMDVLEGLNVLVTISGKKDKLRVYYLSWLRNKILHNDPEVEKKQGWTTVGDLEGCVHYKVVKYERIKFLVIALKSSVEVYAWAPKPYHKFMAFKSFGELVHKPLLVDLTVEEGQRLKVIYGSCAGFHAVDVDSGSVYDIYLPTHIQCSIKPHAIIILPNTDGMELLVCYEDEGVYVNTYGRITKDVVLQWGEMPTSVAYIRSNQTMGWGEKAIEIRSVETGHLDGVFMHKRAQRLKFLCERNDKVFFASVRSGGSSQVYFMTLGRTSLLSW

MAP2K1 = molecular target: T18, MAP2K1 (Homo sapiens, UniProt Q02750); assay: Z'-Lyte FRET kinase assay (Invitrogen), MAP2K1; conditions: read-out: IC50, activity toward kinase MAP2K1
T18 construct: purchased Invitrogen (assay run by Invitrogen)

Gsk3β = Gsk3β (Homo sapiens, UniProt P49841); assay: AlphaScreen kinase assay, Gsk3β; conditions: read-out: IC50, activity toward kinase Gsk3β
Sequence of Gsk3β (P49841 whole entry): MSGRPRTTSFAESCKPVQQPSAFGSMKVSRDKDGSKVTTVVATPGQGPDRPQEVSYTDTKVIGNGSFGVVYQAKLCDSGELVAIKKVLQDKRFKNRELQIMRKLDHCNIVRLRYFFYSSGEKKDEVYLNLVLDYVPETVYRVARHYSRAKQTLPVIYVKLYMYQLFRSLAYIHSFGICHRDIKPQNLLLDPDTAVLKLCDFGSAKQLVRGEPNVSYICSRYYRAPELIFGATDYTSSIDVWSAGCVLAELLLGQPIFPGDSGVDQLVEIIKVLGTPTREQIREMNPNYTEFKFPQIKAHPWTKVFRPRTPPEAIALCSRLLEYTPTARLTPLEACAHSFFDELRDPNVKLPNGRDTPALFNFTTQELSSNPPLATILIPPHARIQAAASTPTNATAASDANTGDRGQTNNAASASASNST
In short: as §1

Pyk2 = molecular target: T19, Pyk2 (Homo sapiens, UniProt Q14289); assay: AlphaScreen kinase assay, Pyk2; conditions: read-out: IC50, activity toward kinase Pyk2
T19 construct: purchased Upstate Biotechnology

Flt1 = molecular target: T20, Flt1 (Homo sapiens, UniProt P17948); assay: AlphaScreen kinase assay, Flt1; conditions: read-out: IC50, activity toward kinase Flt1
T20 construct: P1826.pETN6 BI-PTP FLT1 M799-D1165-X WT; His6 (N); made in house; host or cells: E. coli (PTP1B co-expressed)
T20 sequence (P17948 with tags, fused parts or gaps): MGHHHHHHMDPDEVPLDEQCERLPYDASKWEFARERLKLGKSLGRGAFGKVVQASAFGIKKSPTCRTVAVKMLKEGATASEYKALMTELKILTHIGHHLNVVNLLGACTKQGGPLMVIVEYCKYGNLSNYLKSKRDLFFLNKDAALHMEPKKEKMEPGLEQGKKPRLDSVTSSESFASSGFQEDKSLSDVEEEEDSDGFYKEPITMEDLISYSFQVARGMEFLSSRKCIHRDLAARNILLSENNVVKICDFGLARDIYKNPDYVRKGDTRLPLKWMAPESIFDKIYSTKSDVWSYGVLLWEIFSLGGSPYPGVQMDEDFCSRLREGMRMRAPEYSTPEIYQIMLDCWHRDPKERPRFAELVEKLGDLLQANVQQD

Measured: IC50

CC(=O)Nc1cccc(-c2cnc3[nH]ccc3c2)c1 [Compound P-0115]
≤ 10 µM: IKK beta | Kdr | IGF1R | Ret | Jnk3 | Kit | Stk6

COc1ccc(F)c(C(=O)c2c[nH]c3ncc(-c4cccc(NC(C)=O)c4)cc23)c1F [Compound P-1390, N-{3-[3-(2,6-Difluoro-3-methoxy-benzoyl)-1H-pyrrolo[2,3-b]pyridin-5-yl]-phenyl}-acetamide]
≤ 10 µM: Fak | Src | Fms | Btk | Jnk1 | B-Raf | IGF1R | FGFR1 | c-Raf-1 | B-Raf V600E | Kit

CS(=O)(=O)Nc1cccc(-c2cnc3[nH]cc(C(=O)c4c(F)ccc(NS(C)(=O)=O)c4F)c3c2)c1 [Compound P-0746, N-{2,4-Difluoro-3-[5-(3-methanesulfonylamino-phenyl)-1H-pyrrolo[2,3-b]pyridine-3-carbonyl]-phenyl}-methanesulfonamide]
≤ 10 µM: Met | Jnk2 | B-Raf | IGF1R | Ret | FGFR1 | c-Raf-1 | B-Raf V600E

CS(=O)(=O)Nc1ccc(F)c(C(=O)c2c[nH]c3ncc(-c4cccnc4)cc23)c1 [Compound P-0079, N-[4-Fluoro-3-(5-pyridin-3-yl-1H-pyrrolo[2,3-b]pyridine-3-carbonyl)-phenyl]-methanesulfonamide]
not listed: IKK beta | Kdr | Stk6 | Fak | Met | Pyk2 | Flt1
≤ 10 µM: all other assays above

CS(=O)(=O)Nc1ccc(F)c(C(=O)c2c[nH]c3ncc(-c4cccnc4)cc23)c1F [Compound P-0700, N-[2,4-Difluoro-3-(5-pyridin-3-yl-1H-pyrrolo[2,3-b]pyridine-3-carbonyl)-phenyl]-methanesulfonamide]
not listed: IKK beta | Kdr | Jnk3 | Stk6 | Fms | Btk | MAP2K1
≤ 10 µM: all other assays above

CC(C)S(=O)(=O)Nc1ccc(F)c(C(=O)c2c[nH]c3ncc(-c4cccnc4)cc23)c1F [Compound P-0850, propane-2-sulfonic acid [2,4-difluoro-3-(5-pyridin-3-yl-1H-pyrrolo[2,3-b]pyridin-3-carbonyl)-phenyl]-amide]
not listed: IKK beta | Kdr | Ret | Jnk3 | Stk6 | Btk | Met | Jnk2 | MAP2K1 | Flt1
≤ 10 µM: all other assays above
